# Test results from ChEMBL document CHEMBL3259803, “2012 Division of medicinal chemistry award address. Trekking the cannabinoid road: a personal perspective” (J Med Chem, 2014).
# Biological target: Cannabinoid receptor 2 (Homo sapiens) (UniProt P34972)
# Test: Inhibition of [3H]CP-55940 binding to N-terminal FLAG-tagged/C-terminal 6His-tagged recombinant human CB2 receptor overexpressed in baculovirus infected insect Sf21 cells assessed as reduction of receptor Bmax at 10 nM after 1 hr relative to control
# Chain of Cannabinoid receptor 2 (Homo sapiens) (P34972 whole entry): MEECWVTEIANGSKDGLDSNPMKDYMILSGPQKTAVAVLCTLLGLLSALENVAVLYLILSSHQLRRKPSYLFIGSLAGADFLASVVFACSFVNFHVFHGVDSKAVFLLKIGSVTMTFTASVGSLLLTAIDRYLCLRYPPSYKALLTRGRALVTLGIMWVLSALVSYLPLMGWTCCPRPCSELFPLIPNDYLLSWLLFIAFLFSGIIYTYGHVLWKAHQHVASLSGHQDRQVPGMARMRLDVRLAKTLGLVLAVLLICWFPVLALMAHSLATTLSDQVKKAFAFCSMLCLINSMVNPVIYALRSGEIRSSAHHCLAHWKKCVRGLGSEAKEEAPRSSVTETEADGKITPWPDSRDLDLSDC
smiles,measurement,value
CC(C)(CCCCCCN=C=S)c1ccc2c(c1)OC(C)(C)[C@@H]1CC[C@@H](CO)C[C@@H]21,inhibition,75%
